The subject of experiment [1] is RBL-2H3. Briefly: Antioxidant activity […] assessed as DPPH radical scavenging activity. The experiment is classed as functional. (The DPPH test is a chemical assay of radical scavenging.)
Experiment [2] deals with RBL-2H3. Briefly: Antiallergic activity against antigen-IgE-mediated degranulation in rat RBL2H3 cells assessed as inhibition of DNP-BSA-induced beta-hexosaminidase release at 10 to 100 uM. The class given is functional, cell-based.
In experiment [3] the test system is RBL-2H3. Briefly: Antiallergic activity against antigen-IgE-mediated degranulation in rat RBL2H3 cells assessed as reduction in DNP-BSA-induced ROS production at 50 uM after 30 mins. The class given is functional, cell-based.
Experiment [4] concerns RBL-2H3. Briefly: Antiallergic activity against antigen-IgE-mediated degranulation in rat RBL2H3 cells assessed as reduction in DNP-BSA-induced intracellular calcium level at 50 uM after 30 mins. The experiment is classed as functional, cell-based. For orientation: A change in cytosolic calcium serves as a functional read-out for many receptors and channels.
The test system of experiment [5] is RBL-2H3. The experiment can be described thus: Antiallergic activity against antigen-IgE-mediated degranulation in rat RBL2H3 cells assessed as inhibition of translocation of p47phox cytosolic subunit of NADPH oxidase by immunofluorescence technique. The experiment is classed as functional, cell-based.
Experiment [6] concerns RBL-2H3. The experiment can be described thus: Antiallergic activity against antigen-IgE-mediated degranulation in rat RBL2H3 cells assessed as inhibition of translocation of cytosolic subunit of NADPH oxidase by immunofluorescence technique. The experiment is classed as functional, cell-based.
Experiment [7] concerns RBL-2H3. Briefly: Inhibition of NOX-mediated calcium in rat RBL2H3 cells mobilization assessed as antigen-IgE-mediated degranulation. The class given is cell-based.
Experiment [8] concerns RBL-2H3. The experiment can be described thus: Antiallergic activity against antigen-IgE-mediated degranulation in rat RBL2H3 cells assessed as inhibition of DNP-BSA-induced intracellular pathway at 50 uM after 30 mins. The class given is functional, cell-based.

Active and inactive are the calls of the source. The rule behind the calls is not given here.

For the compound `COc1cc(C(=O)/C=C/c2ccc(O)cc2)ccc1O[C@@H]1O[C@H](CO)[C@@H](O)[C@H](O)[C@H]1O`, in experiment [1], the result was inactive. Further, the outcome in experiment [2], in experiment [3], in experiment [4], in experiment [5], in experiment [6] and in experiment [8] was Active. Further, the inhibition result in experiment [7] was “Active”.

Take `COc1ccc(/C=C/C(=O)c2ccc(O[C@@H]3O[C@H](CO)[C@@H](O)[C@H](O)[C@H]3O)c(OC)c2)cc1`: the result in experiment [1] was inactive. In addition, the outcome in experiment [2], in experiment [3], in experiment [4], in experiment [5], in experiment [6] and in experiment [8] was Active. For the same compound, the inhibition entry in experiment [7] is “Active”.

(Values after ChEMBL document CHEMBL1250527, “Chalcone glycosides isolated from aerial parts of Brassica rapa L. 'hidabeni' suppress antigen-stimulated degranulation in rat basophilic leukemia RBL-2H3 cells” (Bioorg Med Chem, 2010).)
